From paper PMC11207335, “In Vitro Metabolism and Transport Characteristics of Zastaprazan” (Pharmaceutics, 2024)
Like-named read-outs stand apart in the source and are kept apart here. Each block holds one compound with its values, some of them ahead of it.

Assays:
[1] = set-up: method as in PMID 29863280, doi:10.1007/s11938-020-00330-x; conditions: no signs of hepatotoxicity; cited from earlier work
erosive esophagitis = test system: erosive esophagitis; set-up: method as in PMID 36504556; conditions: 8-week treatment, patients with erosive esophagitis; cited from earlier work
CYP3A4 [2] = test system: CYP3A4; set-up: method as in PMID 34072547; conditions: cited from earlier work
gastric pH [3] = conditions: cited from earlier work; for % time pH > 4.0 over a period of 24 h: 40 mg dose group, healthy subjects
[4] = Apparent permeability in Caco-2 cells; type: in vitro ADME; conditions: human
Procedure: Caco-2 cells (passage no. 41–42) were grown in tissue culture flasks containing Dulbecco’s Modified Eagle Medium supplemented with 20% FBS, 1% nonessential amino acids, and 1% penicillin–streptomycin. […] The culture medium was replaced every other day. On the day of the experiment, the growth medium was discarded, and the attached cells were washed with prewarmed HBSS (pH 7.4) and preincubated with HBSS for 20 min at 37 °C. […] Aliquots (30 μL) of each sample were vortex-mixed with 90 μL of IS solution for 1 min, and then centrifugation was performed at 13,500 rpm at 4 °C for 5 min. Aliquots (5 μL) of the supernatant were injected into the LC-MS/MS for analysis.

esterase = conditions: 5 μM JP-1366, human liver microsomes
Procedure: The experimental protocols were performed in accordance with FDA guidelines and the previous reports with slight modifications. […] The reactions were stopped by adding 100 μL of lansoprazole (IS) in ice-cold acetonitrile (100 ng/mL).

[5] = test system: human liver microsomes (HLM); assay: Enzyme kinetics of JP-1366 metabolism in human liver microsomes; type: in vitro ADME; conditions: for Vmax: formation of the labelled metabolite from JP-1366, HLM
Procedure: (§1) The reaction was initiated by adding 5 μL of NADPH-generating system in triplicate, and the mixture was further incubated for 30 min at 37 °C in a shaking water bath.
(§2) The concentrations of the metabolites were quantitated, and their formation rates (pmol/mg protein/min) were calculated by dividing the amounts of metabolites formed from the incubation with human liver microsomes and human cDNA-expressed CYP or UGT enzymes by the incubation time.

[6] = target: T1, human cDNA-expressed CYP3A4 (Homo sapiens, UniProt P08684); assay: Enzyme kinetics of JP-1366 metabolism in cDNA-expressed CYP3A4; type: in vitro ADME
T1 construct: purchased Corning Life Sciences
T1 sequence (P08684 whole entry): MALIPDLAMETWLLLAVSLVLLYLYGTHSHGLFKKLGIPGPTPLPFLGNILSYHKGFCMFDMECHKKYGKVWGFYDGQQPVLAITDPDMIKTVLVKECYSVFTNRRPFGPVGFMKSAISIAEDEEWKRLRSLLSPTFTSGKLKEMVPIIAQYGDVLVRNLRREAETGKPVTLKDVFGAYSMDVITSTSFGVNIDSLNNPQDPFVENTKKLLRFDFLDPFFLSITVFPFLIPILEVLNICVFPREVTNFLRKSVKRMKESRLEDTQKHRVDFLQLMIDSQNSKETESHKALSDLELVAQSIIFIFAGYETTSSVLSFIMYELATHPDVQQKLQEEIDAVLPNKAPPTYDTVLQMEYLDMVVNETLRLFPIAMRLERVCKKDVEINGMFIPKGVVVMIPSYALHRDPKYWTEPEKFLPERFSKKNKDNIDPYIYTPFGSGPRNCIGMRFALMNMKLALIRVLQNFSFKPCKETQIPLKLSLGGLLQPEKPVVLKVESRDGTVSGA
Procedure: as §1, §2

[7] = target: T2, human cDNA-expressed CYP2C9 (Homo sapiens, UniProt P11712); assay: Enzyme kinetics of JP-1366 metabolism in cDNA-expressed CYP2C9; type: in vitro ADME
T2 construct: purchased Corning Life Sciences
T2 sequence (P11712 whole entry): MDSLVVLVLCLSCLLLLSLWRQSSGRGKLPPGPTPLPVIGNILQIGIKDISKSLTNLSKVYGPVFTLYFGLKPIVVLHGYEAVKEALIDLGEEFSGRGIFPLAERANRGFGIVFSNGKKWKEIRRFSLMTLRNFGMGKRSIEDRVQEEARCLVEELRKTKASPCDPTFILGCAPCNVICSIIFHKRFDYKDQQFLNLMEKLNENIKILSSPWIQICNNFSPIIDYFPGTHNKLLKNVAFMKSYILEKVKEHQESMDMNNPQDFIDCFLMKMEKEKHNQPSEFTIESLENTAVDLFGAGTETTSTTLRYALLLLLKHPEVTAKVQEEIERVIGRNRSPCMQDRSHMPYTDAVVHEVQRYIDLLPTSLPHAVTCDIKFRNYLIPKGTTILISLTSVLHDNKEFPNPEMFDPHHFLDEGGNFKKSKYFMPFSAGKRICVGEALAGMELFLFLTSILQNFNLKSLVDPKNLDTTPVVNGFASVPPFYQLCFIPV
Procedure: as §1, §2

[8] = target: T3, human cDNA-expressed CYP3A5 (Homo sapiens, UniProt P20815); assay: Enzyme kinetics of JP-1366 metabolism in cDNA-expressed CYP3A5; type: in vitro ADME
T3 construct: purchased Corning Life Sciences
T3 sequence (P20815 whole entry): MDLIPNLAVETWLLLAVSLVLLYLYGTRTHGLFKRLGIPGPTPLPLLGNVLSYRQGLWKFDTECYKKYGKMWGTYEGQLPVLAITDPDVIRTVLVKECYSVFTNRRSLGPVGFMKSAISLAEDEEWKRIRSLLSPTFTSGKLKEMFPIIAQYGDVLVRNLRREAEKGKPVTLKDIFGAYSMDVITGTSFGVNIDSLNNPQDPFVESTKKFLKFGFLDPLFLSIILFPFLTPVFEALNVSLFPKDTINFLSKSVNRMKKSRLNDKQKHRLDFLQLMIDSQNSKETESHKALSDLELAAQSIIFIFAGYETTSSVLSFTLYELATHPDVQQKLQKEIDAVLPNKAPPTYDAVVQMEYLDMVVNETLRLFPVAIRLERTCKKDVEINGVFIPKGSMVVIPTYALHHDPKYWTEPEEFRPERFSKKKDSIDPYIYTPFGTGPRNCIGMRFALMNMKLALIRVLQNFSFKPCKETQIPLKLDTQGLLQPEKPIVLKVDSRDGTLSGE
Procedure: as §1, §2

[9] = test system: human, dog, monkey, mouse, and rat hepatocytes; assay: In vitro metabolic profiling of JP-1366 in hepatocytes; type: in vitro ADME; conditions: 10 µM JP-1366, 60 min; H human, D dog, Mk monkey, M mouse, R rat
Procedure: Cryopreserved human, dog, monkey, mouse, and rat hepatocytes were purified and recovered according to the manufacturer’s protocol. […] The metabolic reaction in each sample well was quenched by adding 120 μL of ice-cold acetonitrile.
MS spectra were obtained in positive-ion mode using electrospray ionization under optimized conditions as follows: capillary temperature, 350 °C; sheath gas flow rate, 40 (arbitrary units); aux gas flow rate, 10 (arbitrary units); and aux gas heater temperature, 350 °C. Full MS scan with data-dependent MS/MS was performed from m/z 100 to m/z 1000.

[10] = target: T4, human cDNA-expressed CYP2D6 (Homo sapiens, UniProt P10635); assay: Enzyme kinetics of JP-1366 metabolism in cDNA-expressed CYP2D6; type: in vitro ADME
T4 construct: purchased Corning Life Sciences
T4 sequence (P10635 whole entry): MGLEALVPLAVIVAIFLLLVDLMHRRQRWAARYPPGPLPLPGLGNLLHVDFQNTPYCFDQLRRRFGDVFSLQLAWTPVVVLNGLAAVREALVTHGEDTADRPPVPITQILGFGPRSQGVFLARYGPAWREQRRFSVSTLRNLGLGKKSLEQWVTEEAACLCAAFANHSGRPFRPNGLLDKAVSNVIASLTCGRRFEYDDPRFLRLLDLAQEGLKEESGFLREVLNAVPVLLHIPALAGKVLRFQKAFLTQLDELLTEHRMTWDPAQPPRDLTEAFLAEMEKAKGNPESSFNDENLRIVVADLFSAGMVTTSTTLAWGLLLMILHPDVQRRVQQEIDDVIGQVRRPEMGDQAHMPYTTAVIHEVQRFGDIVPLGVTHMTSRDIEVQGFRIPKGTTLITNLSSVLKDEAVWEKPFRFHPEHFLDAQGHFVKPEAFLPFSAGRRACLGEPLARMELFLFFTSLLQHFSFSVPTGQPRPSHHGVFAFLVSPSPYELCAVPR
Procedure: as §1, §2

CYP3A4/5 = assay: Combined contribution of CYP3A4/5 to formation of major JP-1366 metabolites; type: in vitro ADME, human; conditions: sum of CYP3A4 and CYP3A5 contributions
Procedure: as §1, §2

[11] = target: T5, human cDNA-expressed CYP2C19 (Homo sapiens, UniProt P33261); assay: Enzyme kinetics of JP-1366 metabolism in cDNA-expressed CYP2C19; type: in vitro ADME
T5 construct: purchased Corning Life Sciences
T5 sequence (P33261 whole entry): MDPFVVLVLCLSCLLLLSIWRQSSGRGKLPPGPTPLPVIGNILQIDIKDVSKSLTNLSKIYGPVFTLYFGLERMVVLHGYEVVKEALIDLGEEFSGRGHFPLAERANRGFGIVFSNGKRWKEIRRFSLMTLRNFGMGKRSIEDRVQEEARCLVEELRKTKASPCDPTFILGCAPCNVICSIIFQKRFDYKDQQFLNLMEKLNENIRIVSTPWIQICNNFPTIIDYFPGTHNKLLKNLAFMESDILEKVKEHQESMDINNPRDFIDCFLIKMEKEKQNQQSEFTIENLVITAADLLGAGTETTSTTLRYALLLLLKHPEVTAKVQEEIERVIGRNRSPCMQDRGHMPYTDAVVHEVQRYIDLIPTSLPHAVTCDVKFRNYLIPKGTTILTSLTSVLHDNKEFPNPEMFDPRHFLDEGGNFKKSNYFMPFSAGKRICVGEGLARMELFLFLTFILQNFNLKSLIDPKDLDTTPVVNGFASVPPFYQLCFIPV
Procedure: as §1, §2

[12] = target: T6, human cDNA-expressed UGT2B17 (Homo sapiens, UniProt O75795); assay: Enzyme kinetics of M1 glucuronidation to M15 in cDNA-expressed UGT2B17; type: in vitro ADME; conditions: formation of M15 from M1, UGT2B17
T6 construct: purchased Corning Life Sciences
T6 sequence (O75795 24-530): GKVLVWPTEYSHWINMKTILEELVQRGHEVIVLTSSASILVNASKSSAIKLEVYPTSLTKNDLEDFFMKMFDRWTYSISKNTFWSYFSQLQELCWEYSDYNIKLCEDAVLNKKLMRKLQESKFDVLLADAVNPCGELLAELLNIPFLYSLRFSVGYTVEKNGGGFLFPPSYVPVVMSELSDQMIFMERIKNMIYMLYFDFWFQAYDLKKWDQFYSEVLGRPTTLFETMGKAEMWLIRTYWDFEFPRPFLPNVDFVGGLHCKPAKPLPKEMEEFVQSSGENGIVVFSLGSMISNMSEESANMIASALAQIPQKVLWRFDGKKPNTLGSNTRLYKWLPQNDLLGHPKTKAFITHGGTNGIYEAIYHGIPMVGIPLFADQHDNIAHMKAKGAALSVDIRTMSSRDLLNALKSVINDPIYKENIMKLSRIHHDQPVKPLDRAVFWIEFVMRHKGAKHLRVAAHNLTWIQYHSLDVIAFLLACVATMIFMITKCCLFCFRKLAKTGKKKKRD
Procedure: (§3) By adding 5 μL of UDPGA (final concentration, 5 mM), the reaction was initiated, and the mixture was further incubated for 30 min at 37 °C in a shaking water bath. The reaction was terminated by adding 100 μL of ice-cold acetonitrile containing 5 ng/mL of lansoprazole (IS).
as §2

[13] = test system: human liver microsomes (HLM); assay: Enzyme kinetics of M1 glucuronidation to M15 in human liver microsomes; type: in vitro ADME; conditions: formation of M15 from M1, HLM
Procedure: as §3, §2

human liver microsomes = assay: JP-1366 metabolism in human liver microsomes with NADPH, with or without SKF-525A; type: in vitro ADME
[14] = target: T7, human cDNA-expressed UGT2B7 (Homo sapiens, UniProt P16662); assay: Enzyme kinetics of M1 glucuronidation to M15 in cDNA-expressed UGT2B7; type: in vitro ADME; conditions: formation of M15 from M1, UGT2B7
T7 construct: purchased Corning Life Sciences
T7 sequence (P16662 24-529): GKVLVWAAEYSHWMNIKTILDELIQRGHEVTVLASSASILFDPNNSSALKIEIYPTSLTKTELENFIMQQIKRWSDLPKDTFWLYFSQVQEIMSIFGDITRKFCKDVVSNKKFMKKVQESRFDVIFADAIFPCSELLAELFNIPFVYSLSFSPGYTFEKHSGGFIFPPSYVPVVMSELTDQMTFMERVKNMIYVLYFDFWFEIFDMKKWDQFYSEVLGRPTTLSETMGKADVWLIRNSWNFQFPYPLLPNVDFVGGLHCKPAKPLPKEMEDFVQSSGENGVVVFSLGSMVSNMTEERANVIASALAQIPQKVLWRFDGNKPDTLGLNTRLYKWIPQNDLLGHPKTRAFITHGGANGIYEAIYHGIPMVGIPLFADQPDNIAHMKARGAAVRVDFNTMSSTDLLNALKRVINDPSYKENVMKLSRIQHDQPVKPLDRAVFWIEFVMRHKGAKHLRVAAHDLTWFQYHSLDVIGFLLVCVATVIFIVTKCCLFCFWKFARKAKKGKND
Procedure: as §3, §2

CYP3A4 [15] = test system: CYP3A4; set-up: method as in PMID 35745870; conditions: cited from earlier work
gastric pH [16] = test system: gastric pH; set-up: method as in PMID 35146797; conditions: 50 mg of tegoprazan dose; cited from earlier work
gastric pH [17] = test system: gastric pH; set-up: method as in PMID 31437865; conditions: cited from earlier work
porcine H^+/K^+-ATPase = target: porcine H^+/K^+-ATPase; set-up: method as in PMID 35745870, PMID 33355910; conditions: reversible inhibition; cited from earlier work
[18] = set-up: method as in PMID 16011666; conditions: cited from earlier work
[19] = cited from earlier work
[20] = formation of the labelled metabolite from JP-1366, CYP3A4
[21] = formation of the labelled metabolite from JP-1366, CYP2C9
[22] = formation of the labelled metabolite from JP-1366, CYP3A5
[23] = formation of the labelled metabolite from JP-1366, CYP2D6
[24] = formation of the labelled metabolite from JP-1366, CYP2C19

SMILES: CNCc1cn(S(=O)(=O)c2cccc(F)c2)c(-c2ccc(F)cc2F)c1OC [Fexuprazan]
tolerability [1]: well tolerated | erosive esophagitis healing versus esomeprazole 40 mg (erosive esophagitis): non-inferior | contribution of CYP3A4 to formation of M11 (hydroxylation) (CYP3A4 [2]): > 60% | contribution of CYP3A4 to formation of M14 (oxidative deamination) (CYP3A4 [2]): more than 80%

SMILES: COc1ccc2nc([S@@+]([O-])Cc3ncc(C)c(OC)c3C)[nH]c2c1 [esomeprazole, reference compound]
% time pH > 4.0 over a period of 24 h (gastric pH [3]; MAD): 56.56% ± 22.47% | % time pH > 4.0 over a period of 24 h (gastric pH [3]; SAD): 72.06% ± 13.43% | % time pH > 4 at nighttime (gastric pH [3]; repeated 40 mg dose): 56.56% ± 22.47%

Papp A→B at 1 h, 4 µM ([4]; Caco-2, pH 7.4): 9.75 ± 0.68 ×10⁻⁶ cm/s | Papp B→A at 1 h, 4 µM ([4]; Caco-2, pH 7.4): 12.2 ± 1.51 ×10⁻⁶ cm/s | efflux ratio at 1 h, 4 µM ([4]; pH 7.4, Caco-2, mean Papp,BA / mean Papp,AB, read-out: ER): 1.3
SMILES: CC(C)NCC(O)COc1cccc2ccccc12 (centres unmarked) [Propranolol, reference compound]

SMILES: [F-].[Na+] [NaF]
inhibition of formation of M23 from JP-1366 (esterase; 100 μM NaF): 18.9% ± 3.9% | inhibition of formation of M23 from JP-1366 (esterase; 1000 μM NaF): 73.3% ± 0.3%

Vmax [5]: 798.8 pmol/min/mg protein | Ki ([5]; substrate inhibition kinetics, formation of the labelled metabolite, HLM): 105 µM | CLint [6, 20]: 0.77 μL/min/pmol CYP | n (Hill coefficient) [6, 20]: 1.8 | Contribution (%) ([6]; relative contribution of CYP3A4 to formation of the labelled metabolite): 28.1% | CLint [7, 21]: 0.0070 μL/min/pmol CYP | n (Hill coefficient) [7, 21]: 0.7 | Contribution (%) ([7]; relative contribution of CYP2C9 to formation of the labelled metabolite): 2.8% | CLint [8, 22]: 0.41 μL/min/pmol CYP | n (Hill coefficient) [8, 22]: 1.5 | Contribution (%) ([8]; relative contribution of CYP3A5 to formation of the labelled metabolite): 68.9% | Hepatocytes (species in which the metabolite was found) [9]: H, D, Mk, M, R | CLint [10, 23]: 0.0015 μL/min/pmol CYP | n (Hill coefficient) [10, 23]: 0.7 | Contribution (%) ([10]; relative contribution of CYP2D6 to formation of the labelled metabolite): 0.1% | contribution of CYP3A4/5 to formation of the metabolite from JP-1366 (CYP3A4/5): 97.0% | CLint [11, 24]: 0.0023 μL/min/pmol CYP | n (Hill coefficient) [11, 24]: 0.6 | Contribution (%) ([11]; relative contribution of CYP2C19 to formation of the labelled metabolite): 0.1%
SMILES: Cc1nc2c(N)cc(C(=O)N3CCC3)cn2c1C [M6, (8-amino-2,3-dimethylimidazo[1,2-a]pyridin-6-yl)(azetidin-1-yl)methanone]

CLint [12]: 1.27 μL/min/mg Protein | Ki ([12]; substrate inhibition): 59 µM | Hepatocytes (species in which the metabolite was found) [9]: H, D, Mk, M, R | CLint [13]: 1.29 μL/min/mg Protein | Vmax [13]: 74.9 pmol/min/mg Protein | n (Hill coefficient) [13]: 1.0 | detection of metabolite after incubation of JP-1366 in human liver microsomes with NADPH (human liver microsomes; 5 μM JP-1366): not detected | CLint [14]: 0.60 μL/min/mg Protein | n (Hill coefficient) [14]: 0.8
SMILES: Cc1cccc(COC2OC(C(=O)O)C(O)C(O)C2O)c1CNc1cc(C(=O)N2CCC2)cn2c(C)c(C)nc12 (centres unmarked) [M15]

SMILES: Cc1nc2cc(C(=O)N(C)C)cc(O[C@H]3CCOc4cc(F)cc(F)c43)c2[nH]1 [tegoprazan]
contribution of CYP3A4 to metabolism to active metabolite M1 (CYP3A4 [15]): about 75% | % time pH > 4 over a 24 h period (gastric pH [16]): 66.0 ± 15.7% | Cmax (gastric pH [17]; 100 mg once daily, day 1): 1413 ± 24.7 ng/mL | Cmax (gastric pH [17]; 100 mg once daily, day 7): 845.2 ± 40.7 ng/mL | decrease of Cmax after repeated administration compared with a single dose (gastric pH [17]; 100 mg once daily): 40% | % time pH > 4 over a 24 h period (gastric pH [17]; repeated oral dose of 100 mg): 70.4% | % time pH > 4 over a 24 h period (gastric pH [17]; single oral dose of 50 mg, six healthy subjects): 48.9% | IC50 (porcine H^+/K^+-ATPase): 0.53 µM

SMILES: CCCC(C(=O)OCCN(CC)CC)(c1ccccc1)c1ccccc1 [SKF-525A, reference compound]
effect on formation of M23 from JP-1366 (human liver microsomes; SKF-525A 10 μM and 100 μM, human liver microsomes): not inhibited

SMILES: COc1ccc2[nH]c([S+]([O-])Cc3ncc(C)c(OC)c3C)nc2c1 (centres unmarked) [omeprazole]
plasma exposure in poor metabolizers with a CYP2C19 mutation [18]: five-fold higher

SMILES: CNCc1cc(-c2ccccc2F)n(S(=O)(=O)c2cccnc2)c1 [Vonoprazan]
pKa [19]: 9.37

Vmax [5]: 23.2 pmol/min/mg protein | Hepatocytes (species in which the metabolite was found) [9]: H, D, M, R
SMILES: Cc1cccc(C)c1CNc1cc(C(=O)O)cn2c(C)c(C)nc12 [M23, 8-((2,6-dimethylbenzyl)amino)-2,3-dimethylimidazo[1,2-a]pyridine-6-carboxylic acid]
